# Measured values as given in US9265253B2, “Use of macrocyclic picolinamides as fungicides” (DOW AGROSCIENCES LLC, priority 2013, dated 2016).
# System: Mycosphaerella graminicola; Anamorph: Septoria tritici
# Assay: Leaf Blotch of Wheat (SEPTTR) disease control
# Format: in vivo
# Settings: Zymoseptoria tritici, 24 h, 1 Day Protectant, rate 100 ppm; read-out: SEPTTR 1 DP disease control
# Summary of the method: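 Preventive or curative tests: first-leaf Yuma wheat, sprayed to run-off, inoculated with S. tritici, dew chamber at 100% humidity, then greenhouse at 20° C. Severity on the first leaf is scored on a 0–100% scale and expressed as % control against untreated plants.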
row,Compound,pest or weed control at 100 ppm
1,CCOCC(=O)OCOc1c(OC)ccnc1C(=O)N[C@H]1CCC[C@H](Cc2ccc(F)cc2)[C@@H](OCC(C)C)[C@H](C)OC1=O [Compound F168],80 to 100%
2,CCOCC(=O)OCOc1c(OC)ccnc1C(=O)N[C@H]1CCC[C@H](CCF)[C@@H](OCC(C)C)[C@H](C)OC1=O [Compound F181],80 to 100%
3,COc1ccnc(C(=O)N[C@H]2CCC[C@H](CC3CCCCC3)[C@@H](OCC(C)C)[C@H](C)OC2=O)c1OCOC(C)=O [Compound F113],80 to 100%
4,CCCO[C@@H]1[C@@H](Cc2ccc(F)cc2)CCC[C@H](NC(=O)c2nccc(OC)c2OCOC(C)=O)C(=O)O[C@H]1C [Compound F101],80 to 100%

# Same assay, conditions: Zymoseptoria tritici, 24 h, 1 Day Protectant, rate 121.5 g/H; read-out: SEPTTR 1 DP disease control
row,Compound,pest or weed control at 121.5 g/ha
1,CCOCC(=O)OCOc1c(OC)ccnc1C(=O)N[C@H]1CCC[C@H](Cc2ccc(F)cc2)[C@@H](OCC(C)C)[C@H](C)OC1=O [Compound F168],80 to 100%
2,CCOCC(=O)OCOc1c(OC)ccnc1C(=O)N[C@H]1CCC[C@H](CCF)[C@@H](OCC(C)C)[C@H](C)OC1=O [Compound F181],80 to 100%
3,COc1ccnc(C(=O)N[C@H]2CCC[C@H](CC3CCCCC3)[C@@H](OCC(C)C)[C@H](C)OC2=O)c1OCOC(C)=O [Compound F113],80 to 100%
4,CCCO[C@@H]1[C@@H](Cc2ccc(F)cc2)CCC[C@H](NC(=O)c2nccc(OC)c2OCOC(C)=O)C(=O)O[C@H]1C [Compound F101],80 to 100%

# Same assay, conditions: Zymoseptoria tritici, 72 h, 3 Day Curative, rate 100 ppm; read-out: SEPTTR 3 DC disease control
row,Compound,pest or weed control at 100 ppm
1,CCOCC(=O)OCOc1c(OC)ccnc1C(=O)N[C@H]1CCC[C@H](Cc2ccc(F)cc2)[C@@H](OCC(C)C)[C@H](C)OC1=O [Compound F168],80 to 100%
2,CCOCC(=O)OCOc1c(OC)ccnc1C(=O)N[C@H]1CCC[C@H](CCF)[C@@H](OCC(C)C)[C@H](C)OC1=O [Compound F181],80 to 100%
3,COc1ccnc(C(=O)N[C@H]2CCC[C@H](CC3CCCCC3)[C@@H](OCC(C)C)[C@H](C)OC2=O)c1OCOC(C)=O [Compound F113],80 to 100%
4,CCCO[C@@H]1[C@@H](Cc2ccc(F)cc2)CCC[C@H](NC(=O)c2nccc(OC)c2OCOC(C)=O)C(=O)O[C@H]1C [Compound F101],80 to 100%

# Same assay, conditions: Zymoseptoria tritici, 72 h, 3 Day Curative, rate 121.5 g/H; read-out: SEPTTR 3 DC disease control
row,Compound,pest or weed control at 121.5 g/ha
1,CCOCC(=O)OCOc1c(OC)ccnc1C(=O)N[C@H]1CCC[C@H](Cc2ccc(F)cc2)[C@@H](OCC(C)C)[C@H](C)OC1=O [Compound F168],80 to 100%
2,CCOCC(=O)OCOc1c(OC)ccnc1C(=O)N[C@H]1CCC[C@H](CCF)[C@@H](OCC(C)C)[C@H](C)OC1=O [Compound F181],80 to 100%
3,COc1ccnc(C(=O)N[C@H]2CCC[C@H](CC3CCCCC3)[C@@H](OCC(C)C)[C@H](C)OC2=O)c1OCOC(C)=O [Compound F113],80 to 100%
4,CCCO[C@@H]1[C@@H](Cc2ccc(F)cc2)CCC[C@H](NC(=O)c2nccc(OC)c2OCOC(C)=O)C(=O)O[C@H]1C [Compound F101],80 to 100%

# System: Alternaria solani
# Assay: Tomato Early Blight (ALTESO) disease control
# Format: in vivo
# Settings: Alternaria solani, topical, 24 h, 1 Day Protectant, read-out: Disease Control ALTESO 1 DP
# Description: Technical grades of materials were dissolved in acetone, which were then mixed with nine volumes of water containing 110 ppm Triton X-100. The fungicide solutions were applied onto wheat seedlings using an automated booth sprayer to run-off. All sprayed plants were allowed to air dry prior to further handling. All fungicides were evaluated using the aforementioned method for their activity vs. all target diseases. Wheat leaf blotch and brown rust activity were also evaluated using track spray applications, in which case the fungicides were formulated as EC formulations, containing 0.1% Trycol 5941 in the spray solutions. Wheat plants (variety Yuma) were grown from seed in a greenhouse in 50% mineral soil/50% soil-less Metro mix until the first leaf was fully emerged, with 7-10 seedlings per pot. These plants were inoculated with an aqueous spore suspension of Septoria tritici either prior to or after fungicide treatments. After inoculation the plants were kept in 100% relative humidity (one day in a dark dew chamber followed by two to three days in a lighted dew chamber at 20° C.) to permit spores to germinate and infect the leaf. The plants were then transferred to a greenhouse set at 20° C. for disease to develop. When disease symptoms were fully expressed on the 1st leaves of untreated plants, infection levels were assessed on a scale of 0 to 100 percent disease severity. Percent disease control was calculated using the ratio of disease severity on treated plants relative to untreated plants. Tomato plants (variety Outdoor girl) were propagated in soil-less Metro mix, with each pot having one plant, and used when 12 to 14 days old. Test plants were inoculated with an aqueous spore suspension of Alternaria solani 24 hr after fungicide treatments. After inoculation the plants were kept in 100% relative humidity (one day in a dark dew chamber followed by two to three days in a lighted dew chamber at 20° C.) to permit spores to germinate and infect the leaf. The plants were then transferred to a growth room at 22° C. for disease to develop. Fungicide formulation, application and disease assessment on the sprayed leaves followed the procedures as described in the Example A.
row,Compound,pest or weed control at 100 ppm
1,CCOCC(=O)OCOc1c(OC)ccnc1C(=O)N[C@H]1CCC[C@H](CCF)[C@@H](OCC(C)C)[C@H](C)OC1=O [Compound F181],80 to 100%
2,COc1ccnc(C(=O)N[C@H]2CCC[C@H](CC3CCCCC3)[C@@H](OCC(C)C)[C@H](C)OC2=O)c1OCOC(C)=O [Compound F113],80 to 100%
3,CCCO[C@@H]1[C@@H](Cc2ccc(F)cc2)CCC[C@H](NC(=O)c2nccc(OC)c2OCOC(C)=O)C(=O)O[C@H]1C [Compound F101],80 to 100%

# System: Puccinia triticina; Synonym: Puccinia recondite f. Sp. Tritici
# Assay: Wheat Brown Rust (PUCCRT) disease control
# Format: in vivo
# Settings: Puccinia triticina, topical, 24 h, 1 Day Protectant, rate 100 ppm; read-out: PUCCRT 1 DP disease control
# Summary of the method: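 Brown rust on first-leaf Yuma wheat: spore inoculation before or after spray application (acetone/Triton X-100 solution, or EC with Trycol in track spray), overnight 100% RH at 22 °C, disease developed at 24 °C. Severity scored 0–100% and converted to percent control against untreated.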
row,Compound,pest or weed control at 100 ppm
1,CCOCC(=O)OCOc1c(OC)ccnc1C(=O)N[C@H]1CCC[C@H](Cc2ccc(F)cc2)[C@@H](OCC(C)C)[C@H](C)OC1=O [Compound F168],80 to 100%
2,CCOCC(=O)OCOc1c(OC)ccnc1C(=O)N[C@H]1CCC[C@H](CCF)[C@@H](OCC(C)C)[C@H](C)OC1=O [Compound F181],80 to 100%
3,COc1ccnc(C(=O)N[C@H]2CCC[C@H](CC3CCCCC3)[C@@H](OCC(C)C)[C@H](C)OC2=O)c1OCOC(C)=O [Compound F113],80 to 100%
4,CCCO[C@@H]1[C@@H](Cc2ccc(F)cc2)CCC[C@H](NC(=O)c2nccc(OC)c2OCOC(C)=O)C(=O)O[C@H]1C [Compound F101],80 to 100%

# Same assay, conditions: Puccinia triticina, topical, 24 h, 1 Day Protectant, rate 121.5 g/H; read-out: PUCCRT 1 DP disease control
row,Compound,pest or weed control at 121.5 g/ha
1,CCOCC(=O)OCOc1c(OC)ccnc1C(=O)N[C@H]1CCC[C@H](Cc2ccc(F)cc2)[C@@H](OCC(C)C)[C@H](C)OC1=O [Compound F168],80 to 100%
2,CCOCC(=O)OCOc1c(OC)ccnc1C(=O)N[C@H]1CCC[C@H](CCF)[C@@H](OCC(C)C)[C@H](C)OC1=O [Compound F181],80 to 100%
3,COc1ccnc(C(=O)N[C@H]2CCC[C@H](CC3CCCCC3)[C@@H](OCC(C)C)[C@H](C)OC2=O)c1OCOC(C)=O [Compound F113],80 to 100%
4,CCCO[C@@H]1[C@@H](Cc2ccc(F)cc2)CCC[C@H](NC(=O)c2nccc(OC)c2OCOC(C)=O)C(=O)O[C@H]1C [Compound F101],80 to 100%

# Same assay, conditions: Puccinia triticina, topical, 72 h, 3 Day Curative, rate 100 ppm; read-out: PUCCRT 3 DC disease control
row,Compound,pest or weed control at 100 ppm
1,CCOCC(=O)OCOc1c(OC)ccnc1C(=O)N[C@H]1CCC[C@H](Cc2ccc(F)cc2)[C@@H](OCC(C)C)[C@H](C)OC1=O [Compound F168],80 to 100%
2,CCOCC(=O)OCOc1c(OC)ccnc1C(=O)N[C@H]1CCC[C@H](CCF)[C@@H](OCC(C)C)[C@H](C)OC1=O [Compound F181],80 to 100%
3,COc1ccnc(C(=O)N[C@H]2CCC[C@H](CC3CCCCC3)[C@@H](OCC(C)C)[C@H](C)OC2=O)c1OCOC(C)=O [Compound F113],80 to 100%
4,CCCO[C@@H]1[C@@H](Cc2ccc(F)cc2)CCC[C@H](NC(=O)c2nccc(OC)c2OCOC(C)=O)C(=O)O[C@H]1C [Compound F101],80 to 100%

# Same assay, conditions: Puccinia triticina, topical, 72 h, 3 Day Curative, rate 121.5 g/H; read-out: PUCCRT 3 DC disease control
row,Compound,pest or weed control at 121.5 g/ha
1,CCOCC(=O)OCOc1c(OC)ccnc1C(=O)N[C@H]1CCC[C@H](Cc2ccc(F)cc2)[C@@H](OCC(C)C)[C@H](C)OC1=O [Compound F168],80 to 100%
2,CCOCC(=O)OCOc1c(OC)ccnc1C(=O)N[C@H]1CCC[C@H](CCF)[C@@H](OCC(C)C)[C@H](C)OC1=O [Compound F181],80 to 100%
3,COc1ccnc(C(=O)N[C@H]2CCC[C@H](CC3CCCCC3)[C@@H](OCC(C)C)[C@H](C)OC2=O)c1OCOC(C)=O [Compound F113],80 to 100%
4,CCCO[C@@H]1[C@@H](Cc2ccc(F)cc2)CCC[C@H](NC(=O)c2nccc(OC)c2OCOC(C)=O)C(=O)O[C@H]1C [Compound F101],80 to 100%
